These results are taken from patent publication US10196482B2, “Mixed alkyl terminated polyether dendrons” (BASF SE, priority 2014, dated 2019).

Series [1] in a line: Solubilization of actives in 3 wt-% polymer solution (high-throughput, UV/VIS). The series is classed as physicochemical. On the procedure: Solubilization measurements were carried out with a highthroughput screening robot. This set up dosed 10 mg solid active and […] of the respective 3 wt-% liquid polymer solution (in CIPAC water D) into wells on a micro titer plate. After the addition of stirring bars and 24 hours incubation time the samples were filtrated via polypropylene filters in order to separate dissolved active and its solid form ated. The amount of solubilized active was determined via UV/VIS spectroscopy.

The conditions of series [2]: at 20° C.; cited from earlier work.
Where [3] appears, read: 10 mg solid active, without polymer or in 3 wt-% polymer solution in CIPAC water D, 24 hours.

Converted amounts (≈) assume the structure as drawn.

Regarding `CC(O)(Cn1cncn1)c1ccc(Oc2ccc(Cl)cc2)cc1C(F)(F)F` (centres unmarked) [BAS 750 F, 2-[4-(4-chlorophenoxy)-2-(trifluoromethyl)phenyl]-1-(1H-1,2,4-triazol-1-yl)propan-2-ol], the “Solubility of BAS 750 F” value in series [1] (setting [3]) turned out to be 15 pmm.
`N#Cc1nn(-c2c(Cl)cc(C(F)(F)F)cc2Cl)c(N)c1[S+]([O-])C(F)(F)F` (centres unmarked) [Fipronil, fipronil] came in with a Solubility of fipronil in series [1] of 12 pmm.
Turning to `NC(=O)N1c2ccccc2C=Cc2ccccc21` [carbamazepine], in series [1] (setting [3]), the Solubility of carbamazepine was 181 pmm.
On to `Cn1cc(C(=O)Nc2ccccc2-c2cc(F)c(F)c(F)c2)c(C(F)F)n1` [fluxapyroxad], for which the Solubility of fluxapyroxad in series [1] (10 mg solid active, alone or in 3 wt-% polymer solution in CIPAC water D, 24 hours) is given as 10 pmm. Besides, the water solubility in series [2] is 4 µg/mL (≈ 10.5 µM).
